Test results: PMC10245560 (bioRxiv, 2023)

Assays:
B. subtilis = conditions: ref Fage et al., 2020; cited from earlier work
B. subtilis 168 = experiment: Bacterial cell wall integrity; format: cell-based; conditions: phase-contrast microscopy
[1] = HS-AFM of fibrils on supported lipid bilayers; format: physicochemical; conditions: supported lipid bilayer with lipid II, errors are standard deviation, SD

Compound | activity against B. subtilis (B. subtilis) | cell-shape deformations / blebbing phenotype (B. subtilis 168) | height of fibrils above the membrane surface [1] [nm]
C=C(CC/C=C\C=C\C[C@H](C)CC(=O)C[C@@H](O)CNC(=O)[C@H](C)[C@@H](C)OC(N)=O)C[C@@H](C)C/C(C)=C/C(=O)O [kalimantacin] | not active |  | 
CN[C@H](CC(C)C)C(=O)N[C@H]1C(=O)N[C@@H](CC(N)=O)C(=O)N[C@H]2C(=O)N[C@H]3C(=O)N[C@H](C(=O)N[C@H](C(=O)O)c4cc(O)cc(O)c4-c4cc3ccc4O)[C@H](O)c3ccc(c(Cl)c3)Oc3cc2cc(c3O[C@@H]2O[C@H](CO)[C@@H](O)[C@H](O)[C@H]2O[C@H]2C[C@](C)(N)[C@H](O)[C@H](C)O2)Oc2ccc(cc2Cl)[C@H]1O [vancomycin] |  | similarly observed | 
hypeptin |  | similarly observed | 
teixobactin |  | similarly observed | 0.8 ± 0.1
